Where “and” joins values, the source holds several entries; their conditions need not be identical. Equal entries are not always repeated.
Experiments:
[1] = ABTS cation radical scavenging assay; conditions: mean ± SEM of three parallel measurements
Procedure: (§1) DMSO solutions of four different concentrations (12.5, 25, 50, and 100 μM) of the synthesized compound 1–26 were prepared. DMSO was used as a control, while BHA and α-TOC were used as antioxidant standards.

[2] = β-carotene-linoleic acid assay (antioxidant); conditions: mean ± SEM of three parallel measurements
Procedure: as §1

[3] = DPPH radical scavenging assay; conditions: mean ± SEM of three parallel measurements
Procedure: as §1

[4] = molecular target: T1, butyrylcholinesterase (BChE) (Equus caballus, UniProt P81908); assay: biochemical; conditions: for SI for BChE: Selectivity index: IC50 for AChE/IC50 for BChE; for IC50: mean ± SEM of three parallel measurements
T1 construct: butyrylcholinesterase (BChE) from horse serum; from tissue; host or cells: horse serum
T1 sequence (P81908 whole entry): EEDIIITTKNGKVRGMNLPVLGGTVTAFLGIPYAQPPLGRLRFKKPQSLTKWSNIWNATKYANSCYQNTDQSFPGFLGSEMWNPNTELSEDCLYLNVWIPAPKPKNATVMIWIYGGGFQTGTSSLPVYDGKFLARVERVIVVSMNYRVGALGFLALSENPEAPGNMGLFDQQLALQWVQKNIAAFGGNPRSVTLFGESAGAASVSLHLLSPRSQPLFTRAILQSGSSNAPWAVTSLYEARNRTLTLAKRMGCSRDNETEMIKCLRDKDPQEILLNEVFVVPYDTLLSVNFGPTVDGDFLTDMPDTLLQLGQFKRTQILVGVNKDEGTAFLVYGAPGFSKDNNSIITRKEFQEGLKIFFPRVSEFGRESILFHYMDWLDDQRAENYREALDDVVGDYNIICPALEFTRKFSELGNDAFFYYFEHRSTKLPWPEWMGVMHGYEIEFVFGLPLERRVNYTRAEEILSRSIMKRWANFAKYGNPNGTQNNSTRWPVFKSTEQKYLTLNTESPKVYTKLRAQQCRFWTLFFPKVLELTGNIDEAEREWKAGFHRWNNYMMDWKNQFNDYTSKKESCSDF
Procedure: (§2) Anticholinesterase activity of all was performed according to the Ellman’s method using a 96-well microplate reader. Acetylcholinesterase (AChE) from electric eel and butyrylcholinesterase (BChE) from horse serum were used. Acetylthiocholine iodide and butyrylthiocholine chloride were utilized as substrates. DTNB (5,50-dithiobis(2-nitrobenzoic) acid was used as a coloring agent to measure the anticholinesterase activity.[43] Measurements were obtained in triplicate.

[5] = molecular target: T2, Acetylcholinesterase (AChE) (Electrophorus electricus, UniProt O42275); assay: biochemical; conditions: for SI for AChE: Selectivity index: IC50 for BChE/IC50 for AChE; for IC50: mean ± SEM of three parallel measurements
T2 construct: Acetylcholinesterase (AChE) from electric eel; from tissue; host or cells: electric eel
T2 sequence (O42275 24-633): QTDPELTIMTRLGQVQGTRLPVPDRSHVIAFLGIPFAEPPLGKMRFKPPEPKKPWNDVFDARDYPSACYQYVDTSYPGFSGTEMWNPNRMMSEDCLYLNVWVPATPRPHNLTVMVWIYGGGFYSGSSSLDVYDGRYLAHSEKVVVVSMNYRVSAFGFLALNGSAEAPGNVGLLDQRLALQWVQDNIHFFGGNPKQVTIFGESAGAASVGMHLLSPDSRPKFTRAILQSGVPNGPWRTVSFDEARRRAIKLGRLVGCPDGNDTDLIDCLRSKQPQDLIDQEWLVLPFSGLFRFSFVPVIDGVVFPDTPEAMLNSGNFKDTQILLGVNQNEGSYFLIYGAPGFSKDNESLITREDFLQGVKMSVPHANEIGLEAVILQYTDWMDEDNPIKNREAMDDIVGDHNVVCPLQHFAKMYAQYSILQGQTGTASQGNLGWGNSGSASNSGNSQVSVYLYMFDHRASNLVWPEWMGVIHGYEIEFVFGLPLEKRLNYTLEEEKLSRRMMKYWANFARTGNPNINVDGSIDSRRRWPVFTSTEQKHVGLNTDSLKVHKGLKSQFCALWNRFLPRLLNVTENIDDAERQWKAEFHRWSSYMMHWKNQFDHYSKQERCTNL
Procedure: as §2

[6] = CUPRAC assay (Cu(II) reducing power); conditions: concentration at 0.500 absorbance; mean ± SEM
Procedure: as §1

tyrosinase = format: biochemical; conditions: mean ± SEM of three parallel measurements
urease = urease (Canavalia ensiformis, UniProt P07374); assay: biochemical; conditions: urease activity IC50, mean ± SEM of three parallel measurements
Sequence of urease (P07374 whole entry, looked up): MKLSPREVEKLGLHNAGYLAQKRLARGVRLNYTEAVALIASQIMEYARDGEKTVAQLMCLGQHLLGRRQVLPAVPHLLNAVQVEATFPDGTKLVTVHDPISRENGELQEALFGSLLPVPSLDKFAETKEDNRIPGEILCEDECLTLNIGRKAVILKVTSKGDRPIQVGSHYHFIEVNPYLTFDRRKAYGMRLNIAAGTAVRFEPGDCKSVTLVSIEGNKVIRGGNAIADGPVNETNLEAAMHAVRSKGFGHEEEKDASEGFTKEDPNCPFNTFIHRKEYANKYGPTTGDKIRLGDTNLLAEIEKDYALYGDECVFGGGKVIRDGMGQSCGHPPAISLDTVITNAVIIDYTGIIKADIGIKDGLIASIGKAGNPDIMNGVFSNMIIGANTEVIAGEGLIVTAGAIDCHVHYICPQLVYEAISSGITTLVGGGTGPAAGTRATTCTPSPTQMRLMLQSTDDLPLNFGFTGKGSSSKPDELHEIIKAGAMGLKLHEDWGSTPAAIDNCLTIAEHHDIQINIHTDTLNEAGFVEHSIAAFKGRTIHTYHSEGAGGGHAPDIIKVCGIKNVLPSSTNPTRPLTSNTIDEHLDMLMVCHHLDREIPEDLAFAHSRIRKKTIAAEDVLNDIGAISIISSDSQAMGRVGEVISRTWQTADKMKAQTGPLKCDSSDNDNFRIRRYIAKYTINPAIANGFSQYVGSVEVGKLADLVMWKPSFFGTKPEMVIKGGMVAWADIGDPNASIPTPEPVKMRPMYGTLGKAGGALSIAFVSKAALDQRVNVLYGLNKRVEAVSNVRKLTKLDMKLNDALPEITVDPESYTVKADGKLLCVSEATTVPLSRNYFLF

Row | Compound | IC50 [1] | IC50 [2] | IC50 [3] | SI for BChE [4] | IC50 [4] | SI for AChE [5] | IC50 [5] | CUPRAC assay A0.5 [6] | IC50 (tyrosinase) | IC50 (urease)
1 | Cn1cccc1C=C1SC(=NN2CCOCC2)N(c2ccccc2)C1=O [Compound 19] | 29.88 ± 0.2 µM | 30.8 ± 0.47 µM | 34.45 ± 0.05 µM | 0.69 | 29.7 ± 0.72 µM | 1.44 | 20.6 ± 0.55 µM | 25.67 ± 0.00 µM | 19280 ± 90 µM | 18.2 ± 0.5 µM
2 | O=C1C(=Cc2nccs2)SC(=NN2CCOCC2)N1c1ccccc1 [Compound 20] | 31.3 ± 0.77 µM | 32.8 ± 0.33 µM | 35.2 ± 0.6 µM | 0.79 | 34.05 ± 0.06 µM | 1.26 | 26.8 ± 0.77 µM | 36.95 ± 0.03 µM | 21400 ± 310 µM | 16.8 ± 0.19 µM
3 | O=C1C(=Cc2ccccn2)SC(=NN2CCOCC2)N1c1ccccc1 [Compound 21, 2-(Morpholinoimino)-3-phenyl-5-(pyridin-2-ylmethylene)thiazolidin-4-one] | 30.7 ± 0.56 µM | 31.5 ± 0.48 µM | 35.01 ± 0.01 µM | 0.73 | 28.1 ± 0.55 µM | 1.36 | 20.6 ± 1.02 µM | 30.77 ± 0.00 µM | 11200 ± 390 µM | 27.8 ± 0.51 µM
4 | O=C1C(=Cc2cccnc2)SC(=NN2CCOCC2)N1c1ccccc1 [Compound 22, 2-(Morpholinoimino)-3-phenyl-5-(pyridin-3-ylmethylene)thiazolidin-4-one] | 30.11 ± 0.28 µM | 31.6 ± 0.79 µM | 34.77 ± 0.22 µM | 0.75 | 33 ± 0.84 µM | 1.33 | 24.8 ± 0.3 µM | 30.42 ± 0.01 µM | 9130 ± 550 µM | 26.2 ± 0.47 µM
5 | O=C1C(=Cc2ccncc2)SC(=NN2CCOCC2)N1c1ccccc1 [Compound 23, 2-(Morpholinoimino)-3-phenyl-5-(pyridin-4-ylmethylene)thiazolidin-4-one] | 32.72 ± 0.19 µM | 34.6 ± 0.5 µM | 36.14 ± 0.16 µM | 0.78 | 25.4 ± 0.26 µM | 1.29 | 19.7 ± 0.54 µM | 31.12 ± 0.00 µM | 8050 ± 110 µM | 25 ± 0.54 µM
6 | O=C1C(=Cc2c[nH]c3ccccc23)SC(=NN2CCOCC2)N1c1ccccc1 [Compound 24, 5-((1H-Indol-3-yl)methylene)-2-(morpholinoimino)-3-phenylthiazolidin-4-one] | 30 ± 1.01 µM | 27.73 ± 0.23 µM | 33.24 ± 0.21 µM | 0.76 | 25.7 ± 0.69 µM | 1.32 | 19.5 ± 0.29 µM | 30.04 ± 0.02 µM | 7210 ± 270 µM | 23.6 µM and 22.5 µM
7 | O=C1C(=Cc2ccc3[nH]ccc3c2)SC(=NN2CCOCC2)N1c1ccccc1 [Compound 25, 5-((1H-Indole-5-yl)methylene)-2-(morpholinoimino)-3-phenylthiazolidin-4-one] | 34.05 ± 0.27 µM | 33.6 ± 0.73 µM | 38.2 ± 0.88 µM | 0.78 | 25.5 ± 0.78 µM | 1.29 | 19.8 ± 0.5 µM | 39.50 ± 0.01 µM | 8400 ± 640 µM | 21.7 ± 0.06 µM
8 | O=C1C(=Cc2ccc3ccccc3n2)SC(=NN2CCOCC2)N1c1ccccc1 [Compound 26, 2-(Morpholinoimino)-3-phenyl-5-(quinolin-2-ylmethylene)thiazolidin-4-one] | 26.5 ± 0.63 µM | 22.4 ± 0.3 µM | 29.7 ± 0.9 µM | 0.77 | 25.7 ± 0.53 µM | 1.30 | 19.8 ± 0.37 µM | 25.91 ± 0.02 µM | 8760 ± 900 µM | 21.5 ± 0.44 µM
